pIC50: −log10 of the molar value.
Legend:
Assay type in all cases: functional, cell-based
NCI-H522 = assay: Anticancer activity against human NCI-H522 cells by HTS assay
[1] = Anticancer activity against human H1299 cells by HTS assay; settings: NCI-H1299
[2] = Anticancer activity against human H460 cells by HTS assay; settings: NCI-H460
[3] = Anticancer activity against human Calu1 cells by HTS assay; settings: Calu-1
HeLa = assay: Anticancer activity against human HeLa cells by HTS assay
NCI-H157 = assay: Anticancer activity against human NCI-H157 cells by HTS assay
[4] = Anticancer activity against human NCI-H1944 cells by HTS assay
HOP-62 = assay: Anticancer activity against human HOP62 cells by HTS assay
[5] = Anticancer activity against human […] cells by HTS assay
[6] = Anticancer activity against human M4E cells by HTS assay
[7] = Anticancer activity against human 292G cells by HTS assay
[8] = Anticancer activity against human LOXIMVI cells by HTS assay; settings: LOX IMVI
A549 = assay: Anticancer activity against human A549 cells by HTS assay
M14 = assay: Anticancer activity against human M14 cells by HTS assay
NCI-H1792 = assay: Anticancer activity against human NCI-H1792 cells by HTS assay
[9] = Anticancer activity against human SKBR cells by HTS assay

| Compound | pIC50 (NCI-H522) | pIC50 [1] | pIC50 [2] | pIC50 [3] | pIC50 (HeLa) | pIC50 (NCI-H157) | pIC50 [4] | pIC50 (HOP-62) | pIC50 [5] | pIC50 [6] | pIC50 [7] | pIC50 [8] | pIC50 (A549) | pIC50 (M14) | pIC50 (NCI-H1792) | pIC50 [9] |
| --- | --- | --- | --- | --- | --- | --- | --- | --- | --- | --- | --- | --- | --- | --- | --- | --- |
| COc1cc(O)c2c(=O)c(OC)c(-c3ccc(OC)c(O)c3)oc2c1 [AYANIN] | 4.69 | < 4.30 | 4.89 | < 4.30 | 4.71 | 4.73 | 4.66 | 4.70 | < 4.30 | 4.79 | < 4.30 | 4.34 | 4.68 | 4.43 | < 4.30 | 4.96 |
| COc1cc(O)c2c(=O)c(O)c(-c3ccc(OC)c(O)c3)oc2c1 [OMBUINE] | 4.76 | 4.46 | 5.56 | < 4.30 | 5.83 | 5.46 | 5.54 | 4.92 | < 4.30 | 4.51 | 4.39 | < 4.30 | 5.51 | 5.37 | 5.47 | 5.08 |
| O=c1c(O)c(-c2ccc(O)c(O)c2)oc2cc(O)cc(O)c12 [QUERCETIN] | 5.24 | 4.87 | 5.02 | 4.63 | 5.45 | 5.22 | 4.99 | 5.12 | 4.77 | 4.66 | < 4.30 | 5.33 | 5.21 | 4.89 | 5.41 | 4.78 |
| COc1cc(O)c2c(=O)c(OC)c(-c3ccc(OC)c(OC)c3)oc2c1 [RETUSIN] | < 4.30 | 4.98 | < 4.30 | 5.19 | 4.33 | < 4.30 | < 4.30 | < 4.30 | < 4.30 | < 4.30 | < 4.30 | 6.41 | < 4.30 | 6.42 | < 4.30 | < 4.30 |
| COc1ccc(-c2oc3cc(O)cc(O)c3c(=O)c2O)cc1O [TAMARIXETIN] | < 4.30 | 4.66 | 5.35 | 4.60 | 5.74 | 5.52 | 5.41 | 5.00 | 5.12 | 4.70 | 4.90 | < 4.30 | 5.58 | 4.83 | 5.39 | 5.10 |

From ChEMBL document CHEMBL3352654, “Synthesis, biological evaluation and SAR analysis of O-alkylated analogs of quercetin for anticancer” (Bioorg Med Chem Lett, 2014)
